Measurements as given in US6921759B2, “Aza- and polyaza-naphthalenyl carboxamides useful as HIV integrase inhibitors” (Merck & Co., Inc., priority 2000, dated 2005).

Assay: Oral bioavailability of jet-milled v. unmilled Na salt
Format: in vivo
Settings: jet-milled crystals (mean particle size about 3 to 5 microns) compared with unmilled (about 20 to 25 microns); orally administered formulations
Description: The Na salt has been jet-milled to provide crystals with a mean particle size of about 3 to 5 microns (v. about 20 to 25 microns for unmilled material) for use in orally administered formulations.

O=C(NCc1ccc(F)cc1)c1nc(N2CCCCS2(=O)=O)c2cccnc2c1[O-].[Na+] [Na salt, Sodium salt of 5-(1,1-Dioxido-1,2-thiazinan-2-yl)-N-(4-fluorobenzyl)-8-hydroxy-1,6-naphthyridine-7-carboxamide]
oral bioavailability: improved oral bioavailability over the unmilled salt
